In patent publication US7538123B2, “Indole derivative having piperidine ring” (Eisai R & D Management Co., Ltd., priority 2004, dated 2009):
Where two headings read alike, the source gives them in different places.

Molecular target: T1, serotonin 1A receptor (Mus musculus, UniProt Q64264)
T1 construct: into the rectum of CD-1 (ICR) male mice (25-45 g); from tissue; host or cells: living CD-1 (ICR) male mice (whole animal)
T1 sequence (Q64264 1-421): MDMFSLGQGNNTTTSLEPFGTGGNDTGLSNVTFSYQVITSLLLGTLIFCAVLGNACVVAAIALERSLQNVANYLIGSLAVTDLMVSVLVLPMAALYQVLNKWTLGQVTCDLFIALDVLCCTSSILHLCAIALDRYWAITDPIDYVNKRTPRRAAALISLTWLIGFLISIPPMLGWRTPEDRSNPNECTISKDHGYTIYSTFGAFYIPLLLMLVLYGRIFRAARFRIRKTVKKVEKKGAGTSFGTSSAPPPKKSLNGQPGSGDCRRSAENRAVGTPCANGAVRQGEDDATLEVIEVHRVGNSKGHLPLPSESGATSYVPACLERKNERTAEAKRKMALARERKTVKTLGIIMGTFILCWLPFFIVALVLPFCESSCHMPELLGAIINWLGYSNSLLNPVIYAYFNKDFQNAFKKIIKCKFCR
Assay: Antagonistic effect on serotonin 1A receptor agonist-induced hypothermia in mouse
Assay type: in vivo
Conditions: sc
Experimental: (1) A thermistor probe was inserted at a depth of approximately 2 cm into the rectum of CD-1 (ICR) male mice (25-45 g), so as to measure the body temperature thereof. Body temperature is decreased by subcutaneous administration of serotonin 1A receptor agonist (8-hydroxy-dipropylaminotetralin) 0.5 mg/kg. Since a serotonin 1A antagonist inhibits such action, the antagonistic effect of a test substance to a serotonin 1A receptor was evaluated using the inhibitory effect of the hypothermia as an index. A test substance was administered 15 minutes before the administration of the serotonin 1A agonist. A serotonin 1A partial agonist alone decreases the body temperature, depending on the degree of the agonistic action thereof. In addition, it has a weak antagonistic effect on 8-hydroxy-dipropylaminotetralin-induced hypothermia. (2) Results

[1] = 15 minutes before 8-hydroxy-dipropylaminotetralin 0.5 mg/kg sc, inhibition of hypothermia, CD-1 (ICR) male mice, read-out: ED50

Row | ED50 [1] [mg/kg] | Structure (SMILES) | ED50 [mg/kg]
1 | 0.41 | COc1ccc2ccccc2c1CCN1CCC(n2ccc3ccc(C(N)=O)cc32)CC1 [Compound 44, 1-{1-[2-(2-methoxynaphthalen-1-yl)ethyl]piperidin-4-yl}-1H-indole-6-carboxamide] | 
2 | 0.2 | COc1ccc2c(=O)c(C)c(C)oc2c1CCN1CCC(n2ccc3ccc(C(N)=O)cc32)CC1 [Compound 36, 1-{1-[2-(7-methoxy-2,3-dimethyl-4-oxo-4H-chromen-8-yl)ethyl]piperidin-4-yl}-1H-indole-6-carboxamide] | 
3 | 0.21 | COc1ccc2c(c1CCN1CCC(n3ccc4ccc(C(N)=O)cc43)CC1)OCCC2=O [Compound 47, 1-{1-[2-(7-methoxy-4-oxochroman-8-yl)ethyl]piperidin-4-yl}-1H-indole-6-carboxamide] | 
4 | 0.3 | COc1cc2c(cc1CCN1CCC(n3ccc4ccc(C(N)=O)cc43)CC1)N(C)CCC2 [Compound 53, 1-{1-[2-(6-methoxy-1-methyl-1,2,3,4-tetrahydroquinolin-7-yl)ethyl]piperidin-4-yl}-1H-indole-6-carboxamide] | 
5 | 0.5 | COc1cc2c(cc1CCN1CCC(n3ccc4ccc(C(N)=O)cc43)CC1)N(C(C)=O)CCC2 [Compound 52, 1-{1-[2-(1-acetyl-6-methoxy-1,2,3,4-tetrahydroquinolin-7-yl)ethyl]piperidin-4-yl}-1H-indole-6-carboxamide] | 
6 | 0.26 | COc1cc2ccccc2cc1CCN1CCC(n2ccc3ccc(C(N)=O)cc32)CC1 [Compound 45, 1-{1-[2-(3-methoxynaphthalen-2-yl)ethyl]piperidin-4-yl}-1H-indole-6-carboxamide] | 
7 | 0.28 | COc1ccc2c(c1CCN1CCC(n3ccc4ccc(C(N)=O)cc43)CC1)CCC2O (centres unmarked) [Compound 49, 1-{1-[2-(1-hydroxy-5-methoxyindan-4-yl)ethyl]piperidin-4-yl}-1H-indole-6-carboxamide] | 
8 | 0.12 | COc1cc2c(cc1CCN1CCC(n3ccc4ccc(C(N)=O)cc43)CC1)C(=O)N(C)CC2 [Compound 33, 1-{1-[2-(6-methoxy-2-methyl-1-oxo-1,2,3,4-tetrahydroisoquinolin-7-yl)ethyl]piperidin-4-yl}-1H-indole-6-carboxamide] | 
9 | 0.84 | COc1ccc2c(c1CCN1CCC(n3ccc4ccc(C(N)=O)cc43)CC1)CCCN2C(C)=O [Compound 54, 1-{1-[2-(1-acetyl-6-methoxy-1,2,3,4-tetrahydroquinolin-5-yl)ethyl]piperidin-4-yl}-1H-indole-6-carboxamide] | 
10 | 0.3 | COc1ccc2c(c1CCN1CCC(n3ccc4ccc(C(N)=O)cc43)CC1)OCCC2O (centres unmarked) [Compound 46, 1-{1-[2-(4-hydroxy-7-methoxychroman-8-yl)ethyl]piperidin-4-yl}-1H-indole-6-carboxamide] | 
11 | 0.3 | CCN1C(=O)CCc2cc(OC)c(CCN3CCC(n4ccc5ccc(C(N)=O)cc54)CC3)cc21 [Compound 59, 1-{1-[2-(1-ethyl-6-methoxy-2-oxo-1,2,3,4-tetrahydroquinolin-7-yl)ethyl]piperidin-4-yl}-1H-indole-6-carboxamide] | 
12 | 0.04 | COc1ccc2c(c1CCN1CCC(n3ccc4ccc(C(N)=O)cc43)CC1)OCCO2 [Compound 32, 1-{1-[2-(6-methoxy-2,3-dihydrobenz[1,4]dioxin-5-yl)ethyl]piperidin-4-yl}-1H-indole-6-carboxamide] | 
13 | 0.37 | COc1ccc2c(c1CCN1CCC(n3ccc4ccc(C(N)=O)cc43)CC1)CCN(C)C2=O [Compound 34, 1-(1-(2-(6-methoxy-2-methyl-1-oxo-1,2,3,4-tetrahydroisoquinolin-5-yl)ethyl)piperidin-4-yl)-1H-indole-6-carboxamide] | 
14 | 0.02 | COc1cc2nc(C)sc2cc1CCN1CCC(n2ccc3ccc(C(N)=O)cc32)CC1 [Compound 28, 1-{1-[2-(5-methoxy-2-methylbenzothiazol-6-yl)ethyl]piperidin-4-yl}-1H-indole-6-carboxamide] | 
15 | 0.52 | CCn1c(=O)oc2cc(OC)c(CCN3CCC(n4ccc5ccc(C(N)=O)cc54)CC3)cc21 [Compound 60, 1-{1-[2-(3-ethyl-6-methoxy-2-oxo-2,3-dihydrobenzoxazol-5-yl)ethyl]piperidin-4-yl}-1H-indole-6-carboxamide] | 
16 | 0.1 | COc1cc2c(cc1CCN1CCC(n3ccc4ccc(C(N)=O)cc43)CC1)N(C)C(=O)CC2 [Compound 57, 1-{1-[2-(6-methoxy-1-methyl-2-oxo-1,2,3,4-tetrahydroquinolin-7-yl)ethyl]piperdin-4-yl}-1H-indole-6-carboxamide] | 
17 | 0.04 | COc1cc2c(cc1CCN1CCC(n3ccc4ccc(C(N)=O)cc43)CC1)OCCO2 [Compound 31, 1-{1-[2-(7-methoxy-2,3-dihydrobenz[1,4]dioxin-6-yl)ethyl]piperidin-4-yl}-1H-indole-6-carboxamide] | 
18 | 0.53 | CNC(=O)c1ccc2ccn(C3CCN(CCc4cc5c(cc4OC)CCC(=O)N5C)CC3)c2c1 [Compound 58, 1-{1-[2-(6-methoxy-1-methyl-2-oxo-1,2,3,4-tetrahydroquinolin-7-yl)ethyl]piperidin-4-yl}-N-methyl-1H-indole-6-carboxamide] | 

The next lines start with the compound.

Row | Structure (SMILES) | ED50 [1] [mg/kg] | ED50 [mg/kg]
19 | COc1cc2oc(C)nc2cc1CCN1CCC(n2ccc3ccc(C(N)=O)cc32)CC1 [Compound 4, 1-{1-[2-(6-methoxy-2-methylbenzoxazol-5-yl)ethyl]piperidin-4-yl}-1H-indole-6-carboxamide] | 0.1 | 
20 | COc1cc2c(cc1CCN1CCC(n3ccc4ccc(C(N)=O)cc43)CC1)C(=O)N(C)CCO2 [Compound 9, 1-{1-[2-(8-methoxy-4-methyl-5-oxo-2,3,4,5-tetrahydrobenzo[f][1,4]oxazepin-7-yl)ethyl]piperidin-4-yl}-1H-indole-6-carboxamide] | 0.3 | 
21 | COc1cc2c(cc1CCN1CCC(n3ccc4ccc(C(N)=O)cc43)CC1)C(=O)CC2 [Compound 26, 1-{1-[2-(6-methoxy-3-oxoindan-5-yl)ethyl]piperidin-4-yl}-1H-indole-6-carboxamide] | 0.25 | 
22 | COc1cc2nc(C)oc2cc1CCN1CCC(n2ccc3ccc(C(N)=O)cc32)CC1 [Compound 8, 1-{1-[2-(5-methoxy-2-methylbenzoxazol-6-yl)ethyl]piperidin-4-yl}-1H-indole-6-carboxamide] | 0.07 | 
23 | COc1ccc2nc(C)oc2c1CCN1CCC(n2ccc3ccc(C(N)=O)cc32)CC1 [Compound 3, 1-{1-[2-(6-methoxy-2-methylbenzoxazol-7-yl)ethyl]piperidin-4-yl}-1H-indole-6-carboxamide] | 0.18 | 
24 | CCc1nc2cc(CCN3CCC(n4ccc5ccc(C(N)=O)cc54)CC3)c(OC)cc2o1 [Compound 6, 1-{1-[2-(2-ethyl-6-methoxybenzoxazol-5-yl)ethyl]piperidin-4-yl}-1H-indole-6-carboxamide] | 0.35 | 
25 | COc1ccc2c(C)noc2c1CCN1CCC(n2ccc3ccc(C(N)=O)cc32)CC1 [Compound 1, 1-{1-[2-(6-methoxy-3-methylbenz[d]isoxazol-7-yl)ethyl]piperidin-4-yl}-1H-indole-6-carboxamide] |  | 0.3
26 | COc1cc2onc(C)c2cc1CCN1CCC(n2ccc3ccc(C(N)=O)cc32)CC1 [Compound 2, 1-{1-[2-(6-methoxy-3-methylbenzo[d]isoxazol-5-yl)ethyl]piperidin-4-yl}-1H-indole-6-carboxamide] | 0.4 | 
27 | COc1ccc2c(c1CCN1CCC(n3ccc4ccc(C(N)=O)cc43)CC1)CCC2=O [Compound 25, 1-{1-[2-(5-methoxy-1-oxoindan-4-yl)ethyl]piperidin-4-yl}-1H-indole-6-carboxamide] | 0.1 | 
28 | COc1ccc2oc(C)nc2c1CCN1CCC(n2ccc3ccc(C(N)=O)cc32)CC1 [Compound 7, 1-{1-[2-(5-methoxy-2-methylbenzoxazol-4-yl)ethyl]piperidin-4-yl}-1H-indole-6-carboxamide] | 0.38 | 
29 | COc1cc2cccnc2cc1CCN1CCC(n2ccc3ccc(C(N)=O)cc32)CC1 [Compound 51, 1-{1-[2-(6-methoxyquinolin-7-yl)ethyl]piperidin-4-yl}-1H-indole-6-carboxamide] |  | 0.66
30 | CNC(=O)c1ccc2ccn(C3CCN(CCc4c(OC)ccc5c4OC(C)(C)CC5O)CC3)c2c1 (centres unmarked) [Compound 48, 1-{1-[2-(4-hydroxy-7-methoxy-2,2-dimethylchroman-8-yl)ethyl]piperidin-4-yl}-N-methyl-1H-indole-6-carboxamide] |  | 0.06
31 | COc1ccc2sc(C)nc2c1CCN1CCC(n2ccc3ccc(C(N)=O)cc32)CC1 [Compound 27, 1-{1-[2-(5-methoxy-2-methylbenzothiazol-4-yl)ethyl]piperidin-4-yl}-1H-indole-6-carboxamide] | 0.42 | 
32 | COc1ccc2c(c1CCN1CCC(n3ccc4ccc(C(N)=O)cc43)CC1)OC(C)(C)CC2=O [Compound 22, 1-{1-[2-(7-methoxy-2,2-dimethyl-4-oxochroman-8-yl)ethyl]piperidin-4-yl}-1H-indole-6-carboxamide] | 0.1 | 
